Values of other authors as cited in patent publication EP2156182B1, “DETECTION OF AN ANALYTE IN A SAMPLE OF HEMOLYZED WHOLE BLOOD” (Roche Diagnostics GmbH, priority 2007, dated 2008).

Legend:
[1] = therapeutic range, whole blood drug monitoring
[2] = relative to cyclosporin

| therapeutic trough concentration [1] [µg/L] | Compound | times more potent than cyclosporin in vitro [2] |
| --- | --- | --- |
| 5 to 15 | CO[C@H]1C[C@@H]2CC[C@@H](C)[C@@](O)(O2)C(=O)C(=O)N2CCCC[C@H]2C(=O)O[C@H]([C@H](C)C[C@@H]2CC[C@@H](O)[C@H](OC)C2)CC(=O)[C@H](C)/C=C(\C)[C@@H](O)[C@@H](OC)C(=O)[C@H](C)C[C@H](C)/C=C/C=C/C=C/1C [sirolimus] | – |
| 5 to 20 | C=CC[C@@H]1/C=C(\C)C[C@H](C)C[C@H](OC)[C@H]2O[C@@](O)(C(=O)C(=O)N3CCCC[C@H]3C(=O)O[C@H](/C(C)=C/[C@@H]3CC[C@@H](O)[C@H](OC)C3)[C@H](C)[C@@H](O)CC1=O)[C@H](C)C[C@@H]2OC [Tacrolimus, tacrolimus] | up to 100 times |
